According to patent publication US20200281845A1, “COMPOSITIONS COMPRISING LESPEDEZA PLANT EXTRACT” (Clariant International Ltd., priority 2017, published 2020):

System: Per2pro-LUC
Assay: Improvement of circadian clock activity reduced by TCDD, Per2pro-LUC in HaCaT cells
Format: cell-based, human
Conditions: TCDD 1.5 nM for 4 hours, compared to cells treated with solvent toluene alone
Experimental: The improvement effects of the extracts of Lespedeza bicolor Turcz, Lespedeza cuneata G. Don, Lespedeza maximowiczii C. K. Schneid and Lespedeza capitata were measured in skin circadian clock activity reduced by TCDD (2,3,7,8-Tetrachlorodibenzo-p-dioxin) which is an environmental hormone dioxin. HaCaT cells containing Per2pro-LUC were inoculated in a 96-well plate containing Hygromycine B at 200 ug/ml and 10% FBS in DMEM medium (1.4×10^4 cells/well), and cultured in a 5% CO2 incubator at 37° C. for 48 hours. After 48 hours, 50 ug/ml of the extracts of Lespedeza bicolor Turcz, Lespedeza cuneata G. Don and Lespedeza maximowiczii C. K. Schneid and Lespedeza capitata were each treated for 24 hours while being treated with TCDD (2,3,7,8-tetrachlorodibenzo-p-dioxin) 1.5 nM for 4 hours simultaneously, and then transferred to the medium for measuring Luciferase (DMEM containing HEPES 10 mM, Luciferin 1 mM, Hygromycine B 200 ug/ml, 10% FBS). […] K. Schneid and Lespedeza capitata in alleviating reduced biorhythm by environmental hormones. As shown here, cells treated with TCDD had 30% reduced absolute value for Per2pro-LUC rhythm, compared to cells that were treated with the solvent toluene alone. In contrast to this, cells treated with the extracts of Lespedeza bicolor Turcz, Lespedeza cuneata G. Don, Lespedeza maximowiczii C.

SMILES: Clc1cc2c(cc1Cl)Oc1cc(Cl)c(Cl)cc1O2 [TCDD, 2,3,7,8-Tetrachlorodibenzo-p-dioxin]
- reduced absolute value for Per2pro-LUC rhythm: 30%
